Test results reported in US20150018384A1, “TREATMENT FOR HIGH CHOLESTEROL” (FibroGen, Inc., priority 2012, published 2015).

Legend:
[1] = test system: genes involved in cholesterol biosynthesis in DIO mice liver; experiment: Microarray expression of cholesterol biosynthesis genes in liver of DIO mice; format: in vivo, mouse; conditions: 60 mg/kg three times a week, 4 weeks of dosing, relative to vehicle treated mice
Procedure: (§1) A number of PHI compounds were evaluated for their effect on the expression of cholesterol biosynthesis genes in mouse liver. […] Liver tissue was harvested and stored in RNALater (Life Technologies). Total RNA was isolated with Trizol (Life Technologies) and purified with RNEasy96 (Qiagen) according to the manufacturers' protocols. RNA concentration was measured by NanoDrop (Thermo), and quality was assessed by Bioanalyzer (Agilent).
(§2) Biotinylated microarray probe was prepared using the 3′IVT Express kit (Affymetrix) and hybridized to mouse 430A 2.0 arrays as recommended in the manufacturer's protocol. Arrays were stained, washed, and scanned using Affymetrix equipment and software. Three arrays were run for each treatment and time point, each representing the liver sample from one individual animal.
(§3) For microarray analysis, RNA from animals in each treatment group was pooled in pairs (n=3 pairs for 4 h vehicle, n=2 pairs for all other treatment groups, for a total of 13 arrays per compound study). This approach was used to improve the signal-to-noise ratio on microarrays. Biotinylated probe was prepared using the One-Cycle cDNA synthesis kit (Affymetrix) and hybridized to mouse 430A 2.0 arrays as recommended in the manufacturer's protocol. Arrays were stained, washed, and scanned using Affymetrix equipment and software.
(§4) Array quality was assessed with GeneChip Operating System and/or Command Console software (Affymetrix). CEL files were uploaded to GeneSpring 7.3.1 (Agilent) using GC-RMA baseline correction. Principal Components Analysis was used to identify and reject outlier arrays. Data are reported as fold-change compared to timepoint-matched vehicle controls from the same study. Values less than 1.0 indicate a reduction of RNA in the treated animal liver tissue.
Liver tissue was collected as described in Example 6 from DIO mice at the end of the study (4 weeks of dosing) described in Example 12. RNA isolation and microarray analysis were carried out as described in Example 6. The expression of 16 genes involved in cholesterol biosynthesis in mice treated with Compound B, Compound E, or Compound D, relative to that in the vehicle treated mice, is shown in Table 7.

[2] = test system: Cholesterol Biosynthesis Genes in the Mouse Liver; experiment: Microarray expression of cholesterol biosynthesis genes in mouse liver; format: in vivo; conditions: 10 mg/kg oral
Procedure: as §1, §2
Animals were sacrificed 4 h or 8 h later. Each compound was tested in a separate animal study with separate controls. Liver tissue was harvested and stored in RNALater (Life Technologies). Total RNA was isolated with Trizol (Life Technologies) and purified with RNEasy96 (Qiagen) according to the manufacturers' protocols. RNA concentration was measured by NanoDrop (Thermo), and quality was assessed by Bioanalyzer (Agilent).
as §3, §4

[3] = test system: subjects with end-stage renal disease (ESRD) receiving maintenance hemodialysis; experiment: Study 2: phase 2 study of compound A vs EPO in ESRD subjects on maintenance hemodialysis; format: in vivo, human; conditions: treated for 19 weeks, FIG. 2
Procedure: Total cholesterol and lipid panels were measured by standard procedures.
Total cholesterol was measured from all subjects in Study 1 or Study 2 as part of the chemistry panel at prespecified time points.
Frozen serum samples, collected from subjects in Study 1 or Study 2, were selected for the lipid panel analysis based on the following criteria: 1) with matched baseline (D1W1) and; 2) at least one other time point. The complete lipid panel includes: total cholesterol (TC), HDL, LDL-measured, Triglycerides and VLDL (Calculated). Ratio of HDL/LDL or LDL/HDL were analyzed.
A total of n=20 subjects were selected and assayed for the complete lipid panel as described above. Subjects on this study protocol were not required to fast nor have any diet restrictions.

[4] = test system: subjects with end stage renal disease (ESRD); experiment: ESRD subjects switched from epoetin alfa to Compound A or continued on epoetin alfa; format: in vivo, human; conditions: six weeks
Procedure: Mean total cholesterol change for the Compound A-treated subjects (all cohorts) was a decrease of 15 mg/dL compared to an increase of 18 mg/dL for the epoetin alfa treated subjects.

[5] = test system: subjects with end stage renal disease (ESRD); experiment: as above; format: in vivo, human
[6] = baseline, Compound A 3 cohorts n=74, Epoetin alfa n=22

Compound: N#Cc1nc(C(=O)NCC(=O)O)c(O)c2c(Oc3ccccc3)cccc12 [Compound E, [(1-Cyano-4-hydroxy-5-phenoxy-isoquinoline-3-carbonyl)-amino]-acetic acid]
- 3-hydroxy-3-methylglutaryl-Coenzyme A reductase (Hmgcr) expression [1]: 0.36
- 3-hydroxy-3-methylglutaryl-Coenzyme A synthase 1 (Hmgcs1) expression [1]: 0.33
- 7-dehydrocholesterol reductase (Dhcr7) expression [1]: 0.52
- NAD(P) dependent steroid dehydrogenase-like (Nsdhl) expression [1]: 0.77
- acetyl-Coenzyme A acetyltransferase 2 (Acat2) expression [1]: 0.69
- cytochrome P450, family 51 (Cyp51) expression [1]: 0.26
- farnesyl diphosphate farnesyl transferase 1 (Fdft1) expression [1]: 0.40
- farnesyl diphosphate synthetase (Fdps) expression [1]: 0.57
- isopentenyl-diphosphate delta isomerase (Idi1) expression [1]: 0.42
- lanosterol synthase (Lss) expression [1]: 0.45
- mevalonate (diphospho) decarboxylase (Mvd) expression [1]: 0.34
- mevalonate kinase (Mvk) expression [1]: 0.58
- phosphomevalonate kinase (Pmvk) expression [1]: 0.74
- squalene epoxidase (Sqle) expression [1]: 0.52
- sterol-C4-methyl oxidase-like (Sc4mol) expression [1]: 0.27
- sterol-C5-desaturase (fungal ERG3, delta-5-desaturase) homolog (S. cerevisae) (Sc5d) expression [1]: 0.34

Compound: N#Cc1nc(C(=O)NCC(=O)O)c(O)c2ccn(Cc3ccc4ccccc4c3)c12 [Compound J, [(7-Cyano-4-hydroxy-1-naphthalen-2-ylmethyl-1H-pyrrolo[2,3-c]pyridine-5-carbonyl)-amino]-acetic acid]
- 3-hydroxy-3-methylglutaryl-Coenzyme A reductase (Hmgcr) RNA expression ([2]; 4 h): 0.38 fold-change
- 3-hydroxy-3-methylglutaryl-Coenzyme A synthase 1 (Hmgcs1) RNA expression ([2]; 4 h): 0.28 fold-change
- 7-dehydrocholesterol reductase (Dhcr7) RNA expression ([2]; 4 h): 0.52 fold-change
- NAD(P) dependent steroid dehydrogenase-like (Nsdhl) RNA expression ([2]; 4 h): 0.42 fold-change
- acetyl-Coenzyme A acetyltransferase 2 (Acat2) RNA expression ([2]; 4 h): 0.58 fold-change
- cytochrome P450, family 51 (Cyp51) RNA expression ([2]; 4 h): 0.38 fold-change
- farnesyl diphosphate farnesyl transferase 1 (Fdft1) RNA expression ([2]; 4 h): 0.70 fold-change
- farnesyl diphosphate synthetase (Fdps) RNA expression ([2]; 4 h): 0.38 fold-change
- isopentenyl-diphosphate delta isomerase (Idi1) RNA expression ([2]; 4 h): 0.25 fold-change
- lanosterol synthase (Lss) RNA expression ([2]; 4 h): 0.77 fold-change
- mevalonate (diphospho) decarboxylase (Mvd) RNA expression ([2]; 4 h): 0.72 fold-change
- mevalonate kinase (Mvk) RNA expression ([2]; 4 h): 0.79 fold-change
- phosphomevalonate kinase (Pmvk) RNA expression ([2]; 4 h): 0.59 fold-change
- squalene epoxidase (Sqle) RNA expression ([2]; 4 h): 0.26 fold-change
- sterol-C4-methyl oxidase-like (Sc4mol) RNA expression ([2]; 4 h): 0.27 fold-change
- sterol-C5-desaturase (fungal ERG3, delta-5-desaturase) homolog (S. cerevisae) (Sc5d) RNA expression ([2]; 4 h): 1.22 fold-change
- 3-hydroxy-3-methylglutaryl-Coenzyme A reductase (Hmgcr) RNA expression ([2]; 8 h): 0.43 fold-change
- 3-hydroxy-3-methylglutaryl-Coenzyme A synthase 1 (Hmgcs1) RNA expression ([2]; 8 h): 0.92 fold-change
- 7-dehydrocholesterol reductase (Dhcr7) RNA expression ([2]; 8 h): 0.94 fold-change
- NAD(P) dependent steroid dehydrogenase-like (Nsdhl) RNA expression ([2]; 8 h): 1.03 fold-change
- acetyl-Coenzyme A acetyltransferase 2 (Acat2) RNA expression ([2]; 8 h): 0.91 fold-change
- cytochrome P450, family 51 (Cyp51) RNA expression ([2]; 8 h): 0.80 fold-change
- farnesyl diphosphate farnesyl transferase 1 (Fdft1) RNA expression ([2]; 8 h): 0.66 fold-change
- farnesyl diphosphate synthetase (Fdps) RNA expression ([2]; 8 h): 0.66 fold-change
- isopentenyl-diphosphate delta isomerase (Idi1) RNA expression ([2]; 8 h): 0.70 fold-change
- lanosterol synthase (Lss) RNA expression ([2]; 8 h): 0.76 fold-change
- mevalonate (diphospho) decarboxylase (Mvd) RNA expression ([2]; 8 h): 0.83 fold-change
- mevalonate kinase (Mvk) RNA expression ([2]; 8 h): 0.79 fold-change
- phosphomevalonate kinase (Pmvk) RNA expression ([2]; 8 h): 0.84 fold-change
- squalene epoxidase (Sqle) RNA expression ([2]; 8 h): 1.03 fold-change
- sterol-C4-methyl oxidase-like (Sc4mol) RNA expression ([2]; 8 h): 0.52 fold-change
- sterol-C5-desaturase (fungal ERG3, delta-5-desaturase) homolog (S. cerevisae) (Sc5d) RNA expression ([2]; 8 h): 0.81 fold-change

Compound: COc1ccc(Cn2cc(Br)c3c(O)c(C(=O)NCC(=O)O)nc(C#N)c32)cc1 [Compound K, {[3-Bromo-7-cyano-4-hydroxy-1-(4-methoxy-benzyl)-1H-pyrrolo[2,3-c]pyridine-5-carbonyl]-amino}-acetic acid]
- 3-hydroxy-3-methylglutaryl-Coenzyme A reductase (Hmgcr) RNA expression ([2]; 4 h): 0.40 fold-change
- 3-hydroxy-3-methylglutaryl-Coenzyme A synthase 1 (Hmgcs1) RNA expression ([2]; 4 h): 0.74 fold-change
- 7-dehydrocholesterol reductase (Dhcr7) RNA expression ([2]; 4 h): 1.13 fold-change
- NAD(P) dependent steroid dehydrogenase-like (Nsdhl) RNA expression ([2]; 4 h): 1.05 fold-change
- acetyl-Coenzyme A acetyltransferase 2 (Acat2) RNA expression ([2]; 4 h): 0.94 fold-change
- cytochrome P450, family 51 (Cyp51) RNA expression ([2]; 4 h): 0.81 fold-change
- farnesyl diphosphate farnesyl transferase 1 (Fdft1) RNA expression ([2]; 4 h): 0.78 fold-change
- farnesyl diphosphate synthetase (Fdps) RNA expression ([2]; 4 h): 1.01 fold-change
- isopentenyl-diphosphate delta isomerase (Idi1) RNA expression ([2]; 4 h): 0.88 fold-change
- lanosterol synthase (Lss) RNA expression ([2]; 4 h): 0.88 fold-change
- mevalonate (diphospho) decarboxylase (Mvd) RNA expression ([2]; 4 h): 0.68 fold-change
- mevalonate kinase (Mvk) RNA expression ([2]; 4 h): 0.92 fold-change
- phosphomevalonate kinase (Pmvk) RNA expression ([2]; 4 h): 0.88 fold-change
- squalene epoxidase (Sqle) RNA expression ([2]; 4 h): 1.46 fold-change
- sterol-C4-methyl oxidase-like (Sc4mol) RNA expression ([2]; 4 h): 0.65 fold-change
- sterol-C5-desaturase (fungal ERG3, delta-5-desaturase) homolog (S. cerevisae) (Sc5d) RNA expression ([2]; 4 h): 0.92 fold-change
- 3-hydroxy-3-methylglutaryl-Coenzyme A reductase (Hmgcr) RNA expression ([2]; 8 h): 0.11 fold-change
- 3-hydroxy-3-methylglutaryl-Coenzyme A synthase 1 (Hmgcs1) RNA expression ([2]; 8 h): 0.30 fold-change
- 7-dehydrocholesterol reductase (Dhcr7) RNA expression ([2]; 8 h): 0.61 fold-change
- NAD(P) dependent steroid dehydrogenase-like (Nsdhl) RNA expression ([2]; 8 h): 0.56 fold-change
- acetyl-Coenzyme A acetyltransferase 2 (Acat2) RNA expression ([2]; 8 h): 0.63 fold-change
- cytochrome P450, family 51 (Cyp51) RNA expression ([2]; 8 h): 0.32 fold-change
- farnesyl diphosphate farnesyl transferase 1 (Fdft1) RNA expression ([2]; 8 h): 0.39 fold-change
- farnesyl diphosphate synthetase (Fdps) RNA expression ([2]; 8 h): 0.37 fold-change
- isopentenyl-diphosphate delta isomerase (Idi1) RNA expression ([2]; 8 h): 0.34 fold-change
- lanosterol synthase (Lss) RNA expression ([2]; 8 h): 0.38 fold-change
- mevalonate (diphospho) decarboxylase (Mvd) RNA expression ([2]; 8 h): 0.20 fold-change
- mevalonate kinase (Mvk) RNA expression ([2]; 8 h): 0.49 fold-change
- phosphomevalonate kinase (Pmvk) RNA expression ([2]; 8 h): 0.96 fold-change
- squalene epoxidase (Sqle) RNA expression ([2]; 8 h): 0.39 fold-change
- sterol-C4-methyl oxidase-like (Sc4mol) RNA expression ([2]; 8 h): 0.21 fold-change
- sterol-C5-desaturase (fungal ERG3, delta-5-desaturase) homolog (S. cerevisae) (Sc5d) RNA expression ([2]; 8 h): 0.24 fold-change

Compound: Epoetin alfa [reference compound]
- change in total cholesterol from baseline over time [3]: No reduction of total cholesterol
- Total Cholesterol change ([4]; Mean (±SD), Compound A orally three times a week (n=74) or continued epoetin alfa (n=22)): +18 (22) mg/dL
- Mean total cholesterol change, increase [4]: 18 mg/dL
- LDL cholesterol change ([5]; Mean (±SD), six weeks, Compound A orally three times a week (n=74) or continued epoetin alfa (n=22)): +5 (14) mg/dL
- Mean BL LDL Cholesterol [5, 6]: 90.75 mg/dL
- Mean BL Total Cholesterol [5, 6]: 158.41 mg/dL
- mean total cholesterol over the course of treatment ([5]; both groups stratified by BL total cholesterol ≦200 or >200 mg/dL, FIG. 16): increase
- HDL-C ([5]; six weeks): did not change significantly
- Mean change in LDL-C, increase ([5]; six weeks): 5 mg/dL
- mean LDL-C over the course of treatment ([5]; subjects with the higher BL total cholesterol (n=2), FIG. 17): slight decrease
- mean LDL-C over the course of treatment ([5]; subjects with the lower BL total cholesterol (n=20)): increase
